# Test results as given in patent publication US20220047556A1 (INSERM (Institut National de la Santé et de la Recherche …, priority 2018, published 2022).
# Key:
# Format in all cases: cell-based, human
# [1] = tested on: PD-1 expression in T cells; test: PD-1 protein expression in PMA/Io-activated T cells, flow cytometry; conditions: T cells incubated 24 h, FIGS. 1I and 1J
# Protocol: (§1) Activation of TCR signaling was performed either with phorbol myristate acetate (PMA) and Ionomycin (Io) or with plate-bound anti-CD3.
# Flow cytometry analyzed were performed on Single cell suspension of hPBMCs and T cells using BD Accuri C6 software, or Diva (BD Biosciences) and FlowJo 9.3.2 (TreeStar) softwares (flow cytometry facility of TBM Core).
# NF-κB phosphorylation = test: phospho-NFκBp65 Western blot and densitometry in T cells after PMA/Io stimulation; conditions: Sulconazole 2 μM, FIG. 1M
# PD-1 positive T cells = test: Immunofluorescence quantification of PD-1 positive T cells; conditions: activated T cells treated 24 h, FIGS. 1K and 1L
# [2] = tested on: JRT3 cells (TCR-activation marker CD69); test: JRT3 functional assay: CD69 in JRT3 cells co-cultured with EPCR-expressing HT29 cells; conditions: 24 h, compared to JRT3 cells cultured alone, FIGS. 1N and 1O
# Protocol: The Jurkat T cell line J.RT3-T3.5 (JRT3) stably expressing the human LES-γδ TCR (JRT3-LES) was incubated with the colon cancer cell line HT29 overexpressing the endothelial protein C receptor (HT29-EPCR) (34). The activation of JRT3-LES cells was evaluated by the expression of CD69.
# [3] = tested on: PD-1 expression in T cells; test: PD-1 mRNA levels in PMA/Io-activated T cells, real-time qPCR; conditions: T cells incubated 24 h, FIG. 1H
# Description: (H) PD-1 mRNA levels following PMA/Io stimulation of T cells, as assessed by Real-time qPCR. Data are represented as fold change to PMA/Io-activated cells assigned 1. […] Data represented as mean±SEM from 3 (H, J) and 2 (0) independent experiments.
# Human colon carcinoma cell lines HT29 (microsatellite-instable (MSI)) and HCT116 (microsatellite-stable (MSS)) cells, BALB/c syngeneic colon carcinoma CT26 cell line, and human T cell lines Jurkat, J.RT3-T3.5 (JRT3), Myla, SeAx and HUT-78, were cultured in DMEM or RPMI 1640 complete media.
# as §1
smiles,measurement,setting,value
"Clc1ccc(CSC(Cn2ccnc2)c2ccc(Cl)cc2Cl)cc1 (centres unmarked) [Sulconazole, 1-[2-[(4-chlorophenyl)methylsulfanyl]-2-(2,4-dichlorophenyl)ethyl]imidazole]",PD-1 expression at the protein level,[1],repressed PD-1 expression
same,NF-κB phosphorylation after PMA/Io stimulation,NF-κB phosphorylation,inhibited
same,reduction of PD-1+ cells,PD-1 positive T cells,50%
same,CD69 expression and number of CD69 positive cells,[2],increased in the absence or presence of Sulconazole
same,PD-1 expression at the RNA level,[3],repressed PD-1 expression
